Data reported in patent publication US6075120A (priority 1995, dated 2000).
Square brackets hold non-standard residues; d marks the D form. Peptide text beside a SMILES is read from it. * marks the point of attachment. X1 = CN1CC[C@]23c4c5ccc(O)c4O[C@H]2C(NCCSC2CC(=O)N(CCCCCCN4C(=O)CC(*)C4=O)C2=O)CC[C@@]3(O)[C@H]1C5; Hyp = O=C(O)[C@@H]1C[C@@H](O)CN1

Experiments:
BK2 -receptor = molecular target: T1, BK2 -receptor (Rattus norvegicus, UniProt P25023); assay: rat uterus assay of bradykinin antagonist (BKAn) activity; type: cell-based; details: bradykinin induced uterine contraction
T1 construct: BKAn activity (pA2) was assessed using the rat uterus preparation; from tissue; host or cells: rat uterus
T1 sequence (P25023 1-396): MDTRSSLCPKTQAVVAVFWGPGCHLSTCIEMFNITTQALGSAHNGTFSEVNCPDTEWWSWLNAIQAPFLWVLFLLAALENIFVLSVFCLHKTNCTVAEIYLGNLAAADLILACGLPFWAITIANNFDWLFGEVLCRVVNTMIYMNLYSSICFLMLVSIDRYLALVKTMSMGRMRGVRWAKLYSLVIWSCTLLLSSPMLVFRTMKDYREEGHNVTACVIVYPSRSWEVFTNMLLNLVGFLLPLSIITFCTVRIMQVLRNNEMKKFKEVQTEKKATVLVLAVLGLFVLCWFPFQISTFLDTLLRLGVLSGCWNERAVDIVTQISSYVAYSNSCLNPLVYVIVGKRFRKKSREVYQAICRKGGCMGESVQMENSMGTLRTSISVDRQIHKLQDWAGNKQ

cyclooxygenase = assay: rat lung parenchymal strips challenged with arachidonic acid; type: cell-based; details: contraction in response to exogenously applied arachidonic acid
Source text: As mentioned previously, for the COI to work it may need to be dissociated from the BKAn so as to allow for its intracellular penetration. Therefore, in order to evaluate the functional activity of a BKAn/COI heterodimer, CP-0460 was exposed to rat lung parenchymal strips which were then challenged with arachidonic acid. This tissue is known to contain both non-specific esterase activity as well as to convert arachidonic acid to thromboxane (via a cyclooxygenase dependent pathway) which is then ultimately responsible for the smooth muscle contraction observed in this assay.

[1] = molecular target: T2, purified human neutrophil elastase (HNE) (Homo sapiens, UniProt P08246); assay: neutrophil elastase inhibition with chromogenic substrate MOS-AAPV-pNA; type: biochemical; details: MOS-AAPV-pNA 0.5 mM, HNE 10-20 nM, pH 7.5, 25 C; read-out: Ki^ss (HNE)
T2 sequence (P08246 30-247 limits assumed): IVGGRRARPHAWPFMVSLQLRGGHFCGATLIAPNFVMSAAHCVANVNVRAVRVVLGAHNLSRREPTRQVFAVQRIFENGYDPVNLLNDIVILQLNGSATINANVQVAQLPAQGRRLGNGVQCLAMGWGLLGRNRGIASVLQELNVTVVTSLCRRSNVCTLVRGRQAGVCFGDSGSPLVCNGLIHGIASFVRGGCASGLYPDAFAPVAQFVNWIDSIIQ

[2] = freshly obtained normal human plasma; details: 37° C.
[3] = tested on: mice injected in the hind limb foot pad with formalin; assay: mouse formalin test (inflammatory and neurogenic pain, hind limb licking); type: in vivo; details: for narcotic / behavioral side effects observed in the formalin test: oxymorphone at highest doses 0.9 and 3.0 umoles/kg, CP-0494 over several hours
Protocol: In order to test the activity of these compounds in vivo, a model of inflammatory and neurogenic pain was used. This model measures the behavioral responses of mice injected in the hind limb foot pad with 50 ul of formalin. Control mice (open circles) show a characteristic bi-phasic response to the injected formalin wherein there is a short lasting initial response followed by a quiescent period which is then followed by a sustained period of hind limb licking. The licking behavior is interpreted to mean that the limb is irritated and painful. The greater the time spent licking, the more painful the stimulus.

Molecule	pA2 --Rat Uterus (BK2 -receptor)	narcotic / behavioral side effects observed in the formalin test [3]	other results
COc1ccc2c(c1)c(CC(=O)O)c(C)n2C(=O)c1ccc(Cl)cc1 [indomethacin]	no effect		log dose ratio shift (cyclooxygenase): 0.998±0.425
CC(C)(C)c1ccc(C(C)(C)C(=O)Oc2ccc(S(=O)(=O)CCCC(=O)O)cc2)cc1 [CE-1218, 4-(3'-carboxy-propylsulfonyl)phenyl 4-tert-butylphenylisobutyrate]	inactive		Ki [1]: 10.5 nM
DR-R-P-J-G-F-C-DF-L-R			cleaved bond [2]: Leu8-Arg9
CN1CC[C@]23c4c5ccc(O)c4O[C@H]2C(=O)CC[C@@]3(O)[C@H]1C5 [oxymorphone]		significant behavioral obtundation resulting in catalepsy and frank respiratory depression	effect on licking behavior in both phases of the formalin test ([3]; 50 ul formalin in hind limb foot pad): reduces both phases of the licking behavior
CC(C)C[C@H](NC(=O)[C@@H](Cc1ccccc1)NC(=O)[C@H](CSC1CC(=O)N(CCCCCCN2C(=O)CC(SCCNC3CC[C@@]4(O)[C@H]5Cc6ccc(O)c7c6[C@@]4(CCN5C)[C@H]3O7)C2=O)C1=O)NC(=O)[C@H](Cc1ccccc1)NC(=O)CNC(=O)[C@@H]1C[C@@H](O)CN1C(=O)[C@@H]1CCCN1C(=O)[C@H](CCCNC(=N)N)NC(=O)[C@H](N)CCCNC(=N)N)C(=O)N[C@@H](CCCNC(=N)N)C(=O)O (some centres unmarked) [CP-0494] (H-[dR]RP[Hyp]GFC(X1)[dF]LR-OH)		no observable narcotic effects	
